Results as given in patent publication US20230048678A1, “ICAN DERIVATIVES FOR ANTIFUNGAL USE” (DEBRECENI EGYETEM, priority 2019, published 2023).

Columns and labels:
HaCat cells = assay: HaCat cell damage during time-lapse imaging; assay type: cell-based, human; settings: under 24 hours, MICAN-treated infected cultures
Text: (§1) As we mentioned in the Background art, studies have been carried out to successfully utilize 1-N-methylamino-5-isocyanonaphthalene (MICAN) as vital cell dye on different human cell lines [Nagy Z L, 2018]. […] Since these dyes are nonpolar, they are expected to easily bind to and stain the nonpolar chitin in the cell wall of different fungi species. We tested this assumption on common yeast from a local shop, and much to our surprise after staining, the yeast cells stopped growing and died in a short time. Repeated experiments led to the same conclusion; however, the applied dye concentration was well below the LD50 determined for human cells. We assumed that these compounds may have antifungal effect, therefore C. albicans, one of the most common human pathogenic fungi was selected for further tests. HaCat cell cultures (spontaneously transformed aneuploid immortal keratinocyte cells from adult human skin) were infected with C. albicans 3666 (same isolate as used in animal experiments) and were treated with different concentrations of MICAN dissolved in DMSO. The fungal growth was followed by time lapse imaging for 24 hours. […] It should be noted, however, that in the case of the untreated HaCat cells the fungal growth exceeded 1000% (24 h) calculated from the hyphal area (FIG. 1b, DMSO control).

C. albicans 3666 = assay: Time-lapse imaging of fungal growth in infected HaCat cultures; assay type: cell-based; settings: 7.5 μg/ml, HaCat cells infected with C. albicans 3666, 24 h; DMSO control exceeded 1000%
Text: As we mentioned in the Background art, studies have been carried out to successfully utilize 1-N-methylamino-5-isocyanonaphthalene (MICAN) as vital cell dye on different human cell lines [Nagy Z L, 2018]. […] Since these dyes are nonpolar, they are expected to easily bind to and stain the nonpolar chitin in the cell wall of different fungi species. We tested this assumption on common yeast from a local shop, and much to our surprise after staining, the yeast cells stopped growing and died in a short time. Repeated experiments led to the same conclusion; however, the applied dye concentration was well below the LD50 determined for human cells. […] It should be noted, however, that in the case of the untreated HaCat cells the fungal growth exceeded 1000% (24 h) calculated from the hyphal area (FIG. 1b, DMSO control). […]
Image analysis plug-ins were developed by a Java-based image processing software, The ImageJ v1.39d (US National Institutes of Health) program enabled the quantitative analysis of fungi. The software is requesting a set of data for the analysis from the user, along with the directory in which the bank of images to be analysed are contained. Image processing and quantitative image analysis were carried out as previously described [Nagy G, 2014]. […]

human cell cultures = assay: MTT bio assay cytotoxicity; assay type: cell-based; settings: MTT bio assay technique
[1] = tested on: C. albicans SC5314, C. krusei ATCC 6258 and C. parapsilosis ATCC 22019; assay: CLSI broth microdilution, MIC summarised over the three Candida test strains; assay type: cell-based; settings: value or range over the three Candida strains of Table 1, total inhibition
Procedure: (§2) ICAN has 3 key moieties, namely the amino, naphthalene and isonitrile. To find out which ones of them are essential for the antifungal behavior and to design more efficient derivatives, comparative studies were carried out, where one of the moieties was exchanged or eliminated. All ICAN derivatives were tested against C. albicans SC5314, C. krusei ATCC 6258 and C. parapsilosis ATCC 22019. The antifungal agents were dissolved in 100% DMSO and diluted further in RPMI-1640 (with L-glutamine but without bicarbonate) and buffered to pH 7.0 with 0.165 M morpholinopropanesulfonic acid (MOPS). MICs were read visually after 48-h incubation at 35° C. using the partial (50%) inhibition (for ICAN derivatives) (PI) and total inhibition (for AMB and ICAN derivatives) (TI) criteria. MICs were determined at least twice.
(§3) The tested C. albicans, C. tropicalis, C. parapsilosis, C. glabrata and C. krusei ATCC strains and clinical isolates are listed in Table 2. MICs were determined according to the CLSI M27-A3 [22]. Antifungal agents were dissolved in 100% DMSO and diluted further in RPMI-1640 (with L-glutamine but without bicarbonate) (Sigma, Budapest, Hungary), and buffered to pH 7.0 with 0.165 M morpholinopropanesulfonic acid (MOPS; Sigma, Budapest, Hungary). The final concentration ranges used for AMB and ICAN derivatives were 0.125 to 4 μg/ml and 0.04 to 20 μg/ml, respectively. Yeast cell suspensions were prepared in RPMI 1640 medium and were adjusted to give a final inoculum concentration of 0.5×10^3 to 2.5×10^3 cells/ml. MICs were read visually after 48-h incubation at 35° C. using the partial (50%) inhibition (for ICAN derivatives) (PI) and total inhibition (for AMB and ICAN derivatives) (TI) criteria. MICs were determined at least twice. For amphotericin B isolates with MIC values of ≤2 mg/L were considered wild-types. [Pfaller M A, 2012]

C. albicans SC5314 = assay: CLSI broth microdilution susceptibility (Table 1); assay type: cell-based; settings: 48 h, 35° C.
Procedure: as §2, §3

[2] = tested on: C. parapsilosis ATCC 22019; assay: CLSI broth microdilution susceptibility (Table 1); assay type: cell-based; settings: 48 h, 35° C.
Procedure: as §2, §3

C. krusei ATCC 6258 = assay: CLSI broth microdilution susceptibility (Table 1); assay type: cell-based; settings: 48 h, 35° C.
Procedure: as §2, §3

[3] = tested on: commercial strain of Saccharomyces cerevisiae; assay: Staining/growth of common yeast; assay type: cell-based
Text: as §1

Q: How did the “damage of treated HaCat cells” value (HaCat cells) turn out when `[C-]#[N+]c1cccc2c(NC)cccc12` [MICAN, N-methyl-1-amino-5-isocyanonaphthalene] was run?
A: no sign of damage

Q: And the “fungal growth calculated from the hyphal area” value (C. albicans 3666)?
A: ~30%

Q: And the LD50 (human cell cultures)?
A: 18 µg/mL

Q: What about the MICTI [1] of the same molecule?
A: 0.75 to 1.25 µg/mL

Q: And the MICPI (C. albicans SC5314; partial (50%) inhibition)?
A: 0.3 µg/mL

Q: And the MICTI (C. albicans SC5314; total inhibition)?
A: 1.25 µg/mL

Q: And the MICPI ([2]; partial (50%) inhibition)?
A: 0.15 µg/mL

Q: What about the MICTI ([2]; total inhibition) of the same molecule?
A: 0.75 µg/mL

Q: And the MICPI (C. krusei ATCC 6258; partial (50%) inhibition)?
A: 0.15 µg/mL

Q: What about the MICTI (C. krusei ATCC 6258; total inhibition) of the same molecule?
A: 1.25 µg/mL

Q: What about the “antifungal effect on yeast” value [3] of the same molecule?
A: effective
